Assay: wn = mass fraction of the nth substance listed
Details: 101 kPa, Liquid, Vibrating tube method

OC[C@@H](O)[C@@H](O)[C@H](O)[C@@H](O)CO [D-sorbitol] + CCOS(=O)(=O)[O-].CCn1cc[n+](C)c1
mass density [kg/m3]
Details	w1 = 0.037	w1 = 0.056	w1 = 0.113	w1 = 0.16	w1 = 0.182	w1 = 0.202
278.15 K	1255.77	1258.66	1267.3	1274.68	1278.11	1281.13
283.15 K	1252.33	1255.52	1263.85	1271.21	1274.65	1277.67
288.15 K	1248.88	1251.77	1260.41	1267.76	1271.19	1274.21
293.15 K	1245.42	1248.33	1256.99	1264.34	1267.76	1270.77
298.15 K	1241.97	1244.88	1253.56	1260.93	1264.36	1267.36
303.15 K	1238.54	1241.45	1250.14	1257.52	1260.96	1263.97
308.15 K	1235.13	1238.04	1246.73	1254.11	1257.55	1260.56
313.15 K	1231.74	1234.65	1243.33	1250.71	1254.15	1257.16
318.15 K	1228.36	1231.27	1239.95	1247.32	1250.77	1253.77
323.15 K	1225	1227.91	1236.59	1243.95	1247.4	1250.4
328.15 K	1221.65	1224.56	1233.25	1240.6	1244.04	1247.03
333.15 K	1218.32	1221.23	1229.92	1237.26	1240.7	1243.69
338.15 K	1215	1217.9	1226.61	1233.93	1237.37	1240.35
343.15 K	1211.69	1214.59	1223.3	1230.62	1234.06	1237.03

OC[C@@H](O)[C@H](O)[C@@H](O)CO [xylitol] + CCOS(=O)(=O)[O-].CCn1cc[n+](C)c1
mass density [kg/m3]
Details	w1 = 0.05	w1 = 0.07	w1 = 0.098	w1 = 0.131	w1 = 0.15	w1 = 0.169
278.15 K	1256.32	1258.74	1261.95	1267.09	1269.01	1271.21
283.15 K	1252.87	1255.31	1258.5	1263.64	1265.56	1267.75
288.15 K	1249.41	1251.86	1255.06	1260.2	1262.12	1264.31
293.15 K	1245.95	1248.4	1251.62	1256.76	1258.69	1260.89
298.15 K	1242.51	1244.96	1248.2	1253.33	1255.25	1257.46
303.15 K	1239.07	1241.53	1244.78	1249.9	1251.82	1254.03
308.15 K	1235.66	1238.11	1241.38	1246.49	1248.41	1250.61
313.15 K	1232.27	1234.72	1238.01	1243.08	1245	1247.2
318.15 K	1228.89	1231.34	1234.65	1239.7	1241.62	1243.81
323.15 K	1225.53	1227.97	1231.3	1236.33	1238.25	1240.44
328.15 K	1222.18	1224.62	1227.97	1232.97	1234.89	1237.08
333.15 K	1218.84	1221.29	1224.64	1229.63	1231.55	1233.73
338.15 K	1215.52	1217.96	1221.33	1226.3	–	1230.39
343.15 K	1212.21	1214.65	1218.02	1222.98	–	1227.06

O=C(CO)[C@@H](O)[C@H](O)[C@H](O)CO [D-fructose] + CCOS(=O)(=O)[O-].CCn1cc[n+](C)c1
mass density [kg/m3]
Details	w1 = 0.069	w1 = 0.104	w1 = 0.171	w1 = 0.248	w1 = 0.266	w1 = 0.307
278.15 K	1265.07	1272.55	1287.93	1306.03	1310.46	1320.13
283.15 K	1261.63	1269.11	1284.51	1302.63	1307.07	1316.76
288.15 K	1258.21	1265.68	1281.07	1299.21	–	1313.36
293.15 K	1254.78	1262.28	1277.63	1295.77	1300.21	1309.93
298.15 K	1251.35	1258.88	1274.21	1292.29	1296.72	1306.43
303.15 K	1247.93	1255.47	1270.78	1288.73	1293.13	1302.82
308.15 K	1244.5	1252.05	1267.3	1285.14	1289.48	1299.08
313.15 K	1241.08	1248.62	1263.76	1281.5	1285.81	1295.34
318.15 K	1237.67	1245.19	1260.19	1277.84	1282.13	1291.62
323.15 K	1234.25	1241.74	1256.61	1274.19	1278.47	1287.95
328.15 K	1230.83	1238.29	1253.07	1270.58	1274.85	1284.29
333.15 K	1227.42	1234.86	1249.57	1267.01	1271.26	1280.66
338.15 K	1224.03	1231.44	1246.09	1263.46	1267.69	1277.05
343.15 K	1220.66	1228.04	1242.65	1259.93	1264.14	1273.45

CCOS(=O)(=O)[O-].CCn1cc[n+](C)c1 [1-ethyl-3-methylimidazolium ethyl sulfate] + O=C[C@H](O)[C@@H](O)[C@H](O)[C@H](O)CO
mass density [kg/m3]
Details	w2 = 0.046	w2 = 0.059	w2 = 0.097	w2 = 0.134	w2 = 0.154	w2 = 0.18
278.15 K	1260.18	1263.04	1271.43	1279.83	1284.18	1290.02
283.15 K	1256.74	1259.61	1268.01	1276.43	1280.78	1286.63
288.15 K	1253.31	1256.19	1264.58	1273.02	1277.37	1283.21
293.15 K	1249.88	1252.77	1261.19	1269.61	1273.96	1279.8
298.15 K	1246.45	1249.35	1257.81	1266.25	1270.6	1276.37
303.15 K	1243.04	1245.93	1254.43	1262.9	1267.26	1273
308.15 K	1239.63	1242.53	1251.04	1259.54	1263.91	1269.64
313.15 K	1236.25	1239.14	1247.66	1256.17	1260.56	1266.26
318.15 K	1232.88	1235.77	1244.29	1252.82	1257.21	1262.88
323.15 K	1229.52	1232.42	1240.94	1249.47	1253.87	1259.51
328.15 K	1226.18	1229.08	1237.6	1246.13	1250.54	1256.14
333.15 K	1222.86	1225.74	1234.28	1242.81	1247.23	1252.8
338.15 K	1219.54	1222.46	1230.97	1239.5	1243.93	1249.49
343.15 K	1216.24	1219.17	1227.66	1236.2	1240.64	1246.21

From the NIST ThermoML archive (doi:10.1021/je500079y)
